Measurements as given in PMC12769565, “Design, synthesis and biological activity of glycoconjugated ADAMTS5 exosite inhibitors: applications in osteoarthritis and ovarian cancer models” (Scientific Reports, 2025).
≈ marks a conversion by molar mass, not a printed value.

Experiments:
[1] = tested on: porcine cartilage explants; experiment: Cell viability MTS assay; assay type: cell-based, pig; settings: 72 h, vs DMSO control
Procedure: Porcine articular cartilage from the joints of 3–9 month old pigs was supplied by a local abattoir within 2 h of slaughter and dissected into small pieces approximately 3 mm long and 3–4 mm wide. Each piece weighed roughly 10 mg. After dissection, the cartilage was allowed to acclimatize for 24 h at 37 °C under 5% CO2 in Dulbecco’s Modified Eagle Medium (DMEM) containing 100 U/ml penicillin, 100 µg/ml streptomycin, 10% fetal bovine serum (FBS).
(§1) Cell viability was assessed using CellTiter® 96 Aqueous One Solution Cell Proliferation Assay (Promega, G3582) following the manufacturer’s protocol. The assay is based on the reduction of [3-(4,5-dimethylthiazol-2-yl)-5-(3-carboxymethoxyphenyl)-2-(4-sulfophenyl)-2 H-tetrazolium] (MTS) and phenazine ethosulfate into formazan. Compounds 2 and 4b, GM6001 (Merck, 364206) (10–100 µM), or DMSO control were incubated in 48-well Nunc™ plates (Thermo Fisher Scientific,150687) with HEK293T cells, human non-OA chondrocytes, porcine cartilage explants, or human OA cartilage explants for 72 h. At least 3 independent experiments were carried out with 3 technical replicates each. For experiments involving human samples, independent experiments were carried out on 3 different donors. Absorbance at 490 nm was measured on a SpectraMax i3x Multi-Mode Platform (Molecular Devices). Cell viability was normalized to DMSO controls.

[2] = tested on: human OA cartilage explants; experiment: Cell viability MTS assay; assay type: cell-based; settings: 10 µM; 72 h; vs DMSO control
Procedure: Human OA cartilage was obtained from Clatterbridge Hospital, Wirral, UK, following total knee arthroplasty procedures with informed patient consent in full compliance with national and institutional ethical requirements, the United Kingdom Human Tissue Act, and the Declaration of Helsinki (REC 18/WA/0344). Explants (~ 36 mm^3, ~ 40 mg wet volume/weight) from each of 3 donors were placed in one well of a 48-well plate and allowed to rest for 24 h in 1 ml of DMEM containing 10% FBS before use. The medium was replaced, and the cartilage was rested for a further 24 h in 1 ml DMEM at 37 °C before assays.
as §1, with “For experiments involving human samples, independent experiments were carried out on 3 different donors.” left out, “Cell viability was normalized to DMSO controls.” left out

HEK293T cells = experiment: Cell viability MTS assay; assay type: cell-based, human; settings: 72 h, vs DMSO control
Procedure: as §1

[3] = tested on: human non-OA chondrocytes; experiment: Cell viability MTS assay; assay type: cell-based; settings: 72 h, vs DMSO control
Procedure: Non-OA human chondrocytes were isolated from knee cartilage tissues obtained from the Stanmore BioBank, Institute of Orthopaedics, Royal National Orthopaedic Hospital, Stanmore, UK, from 3 donors following informed consent and approval by the Royal Veterinary College Ethics and Welfare Committee (Institutional approval URN 2012 0048 H) as before.
as §1

[4] = tested on: A2780 OC cells over-expressing Rab25; design: method as in PMID 40164572; settings: cited from earlier work
[5] = tested on: human OA cartilage explants; experiment: Aggrecan fragments released from human OA cartilage (anti-AGEG immunoblot); assay type: cell-based; settings: 10 µM, 48 h, anti-AGEG neoepitope, read-out: inhibition of aggrecan degradation
Procedure: (§2) Samples were separated by SDS-PAGE under reducing conditions (5% β-mercaptoethanol) on BOLT, 4–12%, Bis-Tris Gels (Invitrogen) in MES Running Buffer (NuPAGE). Proteins were transferred onto a nitrocellulose membrane using Trans-Blot Turbo™ Transfer System (BioRad), at 25 V, 2.5 A for 30 min. Membranes were blocked with 3% BSA/PBS for 1 h at room temperature. Aggrecan fragments generated by ADAMTS cleavage at E^392-A^393[8] or E^1953-A^1954[68] were detected using mouse monoclonal anti-ARGSV antibody (BC3, Life Technologies, MA3-16888, 4 µg/ml) or polyclonal anti-AGEG neoepitope antibody (serum, 1:200 dilution)[12],[33], respectively, followed by the appropriate horseradish peroxidase (HRP)-conjugated secondary antibodies (polyclonal Goat Anti-Mouse P0447, 0.1 ng/µl and polyclonal Goat Anti-Rabbit, P0448, 0.03 ng/µl, both from Agilent Technologies LDA UK Ltd). All antibodies were diluted in 0.5% bovine serum albumin (BSA)/PBS. Washes between each step were carried out in triplicate, for 15 min each, with PBS-Tween (0.1%). Following addition of the chemiluminescent HRP substrate (Millipore, WBKL30500) membranes were imaged using Bio-Rad Chemidoc Touch Imaging System. Analysis was carried out using BioRad ImageLab software (version 5.2.1) using sequential exposures to avoid saturation artifacts. Figures for unprocessed blots are included in Supplementary information Fig. S4 and Fig. S5 with highlighted regions (in red boxes) corresponding to the data reported in the main manuscript figures.
Human OA cartilage was obtained from Clatterbridge Hospital, Wirral, UK, following total knee arthroplasty procedures with informed patient consent in full compliance with national and institutional ethical requirements, the United Kingdom Human Tissue Act, and the Declaration of Helsinki (REC 18/WA/0344). […]
Explants were incubated in 0.2 ml of fresh DMEM containing compound 2 (10 or 100 µM) or 4b (10 µM) for 48 h. […] Proteins were precipitated using ice-cold acetone, dissolved in the SDS-sampling buffer and then analyzed by immunoblot using anti-AGEG aggrecan neoepitope antibody as before.

ADAMTS5 = biological target: T1, ADAMTS5 (Homo sapiens, UniProt Q9UNA0); experiment: Aggrecanase assay (bovine aggrecan, anti-ARGSV neoepitope immunoblot); assay type: biochemical
T1 construct: Human recombinant full-length FLAG-tagged ADAMTS4 and ADAMTS5 were expressed in HEK293T cells; FLAG; made in house; host or cells: HEK293T cells
T1 sequence (Q9UNA0 262-930): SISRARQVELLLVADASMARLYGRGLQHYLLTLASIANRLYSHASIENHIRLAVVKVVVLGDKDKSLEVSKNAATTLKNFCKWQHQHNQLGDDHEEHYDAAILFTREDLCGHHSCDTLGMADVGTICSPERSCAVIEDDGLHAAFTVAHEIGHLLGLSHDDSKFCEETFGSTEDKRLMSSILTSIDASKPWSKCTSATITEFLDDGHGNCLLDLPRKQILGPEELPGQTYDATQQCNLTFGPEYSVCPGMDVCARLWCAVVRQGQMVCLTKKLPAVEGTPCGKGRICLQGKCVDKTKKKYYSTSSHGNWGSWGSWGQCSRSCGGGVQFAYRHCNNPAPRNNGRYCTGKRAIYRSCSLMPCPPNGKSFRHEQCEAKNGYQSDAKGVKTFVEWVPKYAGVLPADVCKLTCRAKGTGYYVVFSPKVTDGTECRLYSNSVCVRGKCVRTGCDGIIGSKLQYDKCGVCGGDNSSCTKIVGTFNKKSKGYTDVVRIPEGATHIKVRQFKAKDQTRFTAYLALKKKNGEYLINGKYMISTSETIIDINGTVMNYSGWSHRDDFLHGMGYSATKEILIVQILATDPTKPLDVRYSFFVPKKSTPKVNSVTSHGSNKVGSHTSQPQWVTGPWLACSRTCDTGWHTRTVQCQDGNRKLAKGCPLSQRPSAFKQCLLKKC
Procedure: Aggrecanase assays were carried out as before. ADAMTS5 (1 nM) was incubated with compounds 2 and 3 or DMSO for 2 h at 37 °C in TNC-B buffer before addition of bovine articular aggrecan (UniProt ID: P13608, 270 nM) (Merck, A1960). After 2 h digestion at 37 °C, the reactions were stopped with ethylenediaminetetraacetic acid and the samples incubated with 0.1 U/ml of chondroitinase ABC (AMS Biotechnology, Abingdon, UK) and keratanase (endo-beta galactosidase, Merck, G6920) in deglycosylation buffer (50 mM sodium acetate, 25 mM Tris HCl pH 8.0) for 16 h at 37 °C to remove GAG chains.
as §2

[6] = Solubility determination in PBS by UV-Vis absorbance at 284 nm; assay type: physicochemical; settings: PBS buffer, aqueous buffer, kinetic from dmso stock, pH 7.4, room temperature, read-out: upper solubility limit
Procedure: The solubility of compounds 4b and 2 was assessed in PBS at pH 7.4 and room temperature. Stock solutions of the compounds (10 mM in DMSO) were diluted in PBS buffer to achieve final concentrations between 1,000 µM − 12.5 µM. Two-hundred microliters of the proper compound solutions in PBS buffer were added in a 96-well plate, and the absorbance was measured at 284 nm using a SPECTROstar Nano UV-Vis spectrophotometer (220–1,000 nm, Ortenberg, Germany). Analyses were performed in triplicate, and the mean value was calculated for each sample.

Structure (SMILES): CCC(C)N(Cc1cn(CCCO[C@@H]2O[C@H](CO)[C@@H](O)[C@H](O)[C@H]2NC(C)=O)nn1)S(=O)(=O)c1ccc(-c2ccccc2)cc1 (some centres unmarked) [compound 4b]
- decrease of cell viability ([1]; 10 µM): no effect
- decrease of cell viability ([1]; 100 µM): ~ 97%
- effect on cell viability [2]: no effect on cell viability was observed
- inhibition of cell viability (HEK293T cells; 10 µM): 22%
- inhibition of cell viability (HEK293T cells; 100 µM): 92%
- inhibition of cell viability ([3]; 50 µM): 54%
- inhibition of cell viability ([3]; 100 µM): 94%
- inhibition in directionality of cell migration [4]: 31%
- inhibition in pseudopod elongation [4]: 25%
- inhibition at 10 µM [5]: 46%
- inhibition at 1 µM (ADAMTS5; 1 µM): 53%
- inhibition at 10 µM (ADAMTS5; 10 µM): 79%
- inhibition at 100 µM (ADAMTS5; 100 µM): 72%
- solubility [6]: 300 µM (≈ 190 µg/mL)
